Measured values: US9320733B2, “Assessment and modulation of cerebrospinal fluid for head pain” (priority 2010, dated 2016)

System: patient with headache (CSF pressures 13-14 cmW)
Experiment: Case report (Example 1): one patient with 10 years of headache and normal CSF pressure, treated by CSF removal via lumbar puncture and then Diamox
Assay type: in vivo, human
Description: Therefore more CSF was drained 10 ml total. […] For example triptans may be combined with Diamox or diuretics, triptans may be combined with NSAM or Lumbar puncture, shunts or intraocular drainage procedures may be use singularly or together.

Row | SMILES | postdural puncture headache (PDPH) while on treatment (3 days after LP with 10 ml CSF drained and start of Diamox, PDPH lost on brief discontinuation) | usual headache after being placed on Diamox (after removal of 10 ml CSF by LP, 3 days later) | symptom status on maintenance treatment (low dose Diamox, after CSF removal) | response of the major headache component to medication (10 years of headache, before CSF removal)
1 | CC(=O)Nc1nnc(S(N)(=O)=O)s1 [Diamox, acetazolamide] | developed postdurai puncture headache | total absence of their usual headache | symptom free | 
2 | CC1(C)O[C@@H]2[C@@H](CO[C@@]3(COS(N)(=O)=O)OC(C)(C)O[C@@H]23)O1 [Topamax, topiramate] |  |  |  | refractory to treatment
